US9896456B2, “Pharmaceutical compound having inhibitory activity against cholesterol acyltransferase isozyme 2 (ACAT2)” (School Juridical Person Kitasato Institute, priority 2014, dated 2018)

Molecular target: T1, ACAT2 (Mus musculus, UniProt O88908)
T1 construct: The resulting sediment was collected as a murine hepatic microsome fraction; from tissue; host or cells: mouse liver (hepatic microsome fraction)
T1 sequence (O88908 1-525): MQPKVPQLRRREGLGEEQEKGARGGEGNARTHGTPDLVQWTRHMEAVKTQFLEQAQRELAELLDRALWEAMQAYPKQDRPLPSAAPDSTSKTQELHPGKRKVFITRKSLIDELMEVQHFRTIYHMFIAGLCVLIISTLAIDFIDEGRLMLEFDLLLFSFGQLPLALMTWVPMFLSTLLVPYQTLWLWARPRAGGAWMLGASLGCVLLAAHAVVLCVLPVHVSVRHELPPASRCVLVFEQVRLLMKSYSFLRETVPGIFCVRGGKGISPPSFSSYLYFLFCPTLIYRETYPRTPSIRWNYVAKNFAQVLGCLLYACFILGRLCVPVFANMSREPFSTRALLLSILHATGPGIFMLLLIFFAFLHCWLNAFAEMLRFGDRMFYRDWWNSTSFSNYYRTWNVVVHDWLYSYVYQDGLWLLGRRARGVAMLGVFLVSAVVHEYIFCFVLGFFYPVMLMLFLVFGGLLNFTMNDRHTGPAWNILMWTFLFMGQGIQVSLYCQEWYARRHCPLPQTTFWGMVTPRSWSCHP
Experiment: Test of inhibitory activity against ACAT2 (murine hepatic microsome, [1-14C]oleoyl coenzyme A)
Type: biochemical
Settings: for IC50: murine hepatic microsome fraction as enzyme source, 37° C., 5 minutes; for degree of inhibitory activity against ACAT2 (in words, compared with pyripyropene A): summary of Table 1
Method: The compounds produced in accordance with the procedure described above were tested concerning the inhibitory activity against ACAT2 in the manner described below.
The ACAT2 enzyme protein was extracted from the membrane fraction derived from the murine hepatic microsome. Mouse livers were homogenized in buffer A (50 mM Tris-HCl buffer (pH 7.8), 1 mM ethylenediaminetetraacetic acid, and 1 mM phenylmethanesulfonyl fluoride) using a Potter-type homogenizer (Tokyo-RIKO). The homogenate was centrifuged at 12,000×g, and the supernatant was subjected to ultracentrifugation at […]. The resulting sediment was collected as a murine hepatic microsome fraction, and this fraction was adjusted so as to have a protein concentration of 5 mg/ml using buffer A. Thus, an enzyme source of the ACAT2 enzyme protein was obtained.
ACAT2 activity was measured in the manner described below. […] The reaction solution was incubated at 37° C. for 5 minutes. A reaction solution prepared with the addition of 10 μl of methanol in place of the sample was used as a control reaction solution.
After the incubation, the reaction was terminated with the addition of 1.2 ml of a chloroform/methanol (1:2) solution to the reaction solution. […] The resulting chloroform layer was evaporated to dryness and spotted on a thin layer chromatography (TLC) plate (silica gel plate, 0.5 mm thickness, Merck). Separation was carried out with the use of a solvent comprising hexane/diethyl ether/acetic acid (70:30:1, v/v). Subsequently, [^14C] cholesteryl oleate separated on the TLC plate was quantified using FLA 7000 (Fuji Film). […] In quantification of the [^14C] cholesteryl oleate, the radioactivity of a TLC plate onto which no substance had been spotted was designated as the background level.
The symbols used in the table are as defined below.

Which IC50 does the source give for CC(=O)OCC(COC(C)=O)[C@@H]1C[C@H](OC(C)=O)[C@@]2(C)Oc3cc(-c4cccnc4)oc(=O)c3[C@H](O)[C@@H]2C1(C)C [PT010] here?
The IC50 was 10 to 100 µM.

With CC(=O)O[C@H]1C[C@@H](C(C)C)C[C@H]2C(O)c3c(cc(-c4ccccc4)oc3=O)O[C@]12C (stereo in doubt) [PT003, (5aS,6S,8S,9aS,10R)-10-hydroxy-8-isopropyl-5a-methyl-1-oxo-3-phenyl-1,5a,6,7,8,9,9a,10-octahydropyrano[4,3-b]chromen-6-yl acetate] as the compound, how does the IC50 read?
The IC50 was 10 to 100 µM.

Which IC50 does the source give for CC(=O)O[C@H]1C[C@@H](C(C)C)C[C@H]2[C@H](O)c3c(cc(-c4cccnc4)oc3=O)O[C@]12C [PT002, (5aS,6S,8S,9aS,10S)-10-hydroxy-8-isopropyl-5a-methyl-1-oxo-3-(pyridin-3-yl)-1,5a,6,7,8,9,9a,10-octahydropyrano[4,3-b]chromen-6-yl acetate] here?
Its IC50 is 10 to 100 µM.

With CC(C)[C@@H]1C[C@H](OC(=O)c2ccc(C#N)cc2)[C@@]2(C)Oc3cc(-c4cccnc4)oc(=O)c3[C@H](O)[C@@H]2C1 [PT005, (5aS,6S,8S,9aS,10R)-10-hydroxy-8-isopropyl-5a-methyl-1-oxo-3-(pyridin-3-yl)-1,5a,6,7,8,9,9a,10-octahydropyrano[4,3-b]chromen-6-yl 4-cyanobenzoate] as the compound, how does the IC50 read?
The IC50 was less than 0.5 µM.

What about the “degree of inhibitory activity against ACAT2 (in words, compared with pyripyropene A)” value of the same compound?
Its value is “substantially equivalent to that of pyripyropene A”.

For CC(=O)O[C@H]1C[C@@H](C(C)C)C(C)(C)[C@H]2[C@@H](O)c3c(cc(-c4cccnc4)oc3=O)O[C@]12C [PT008, (5aS,6S,8S,9aS,10R)-10-hydroxy-8-isopropyl-5a,9,9-trimethyl-1-oxo-3-(pyridin-3-yl)-1,5a,6,7,8,9,9a,10-octahydropyrano[4,3-b]chromen-6-yl acetate], which IC50 is on record?
The IC50 was 0.5 to 10 µM.

Which IC50 does the source give for CC(=O)O[C@H]1C[C@@H](C(C)C)C[C@H]2[C@@H](O)c3c(cc(-c4cccnc4)oc3=O)O[C@]12C [PT001, (5aS,6S,8S,9aS,10R)-10-hydroxy-8-isopropyl-5a-methyl-1-oxo-3-(pyridin-3-yl)-1,5a,6,7,8,9,9a,10-octahydropyrano[4,3-b]chromen-6-yl acetate] here?
The IC50 was 10 to 100 µM.

With CC(=O)O[C@H]1C[C@@H](C(C)C)C[C@H]2[C@H](O)c3c(cc(-c4ccccc4)oc3=O)O[C@]12C [PT004, (5aS,6S,8S,9aS,10S)-0-hydroxy-8-isopropyl-5a-methyl-1-oxo-3-phenyl-1,5a,6,7,8,9,9a,10-octahydropyrano[4,3-b]chromen-6-yl acetate] as the compound, how does the IC50 read?
Its IC50 is 0.5 to 10 µM.

For CC(C)[C@@H]1C[C@H](OC(=O)c2ccc(C#N)cc2)[C@@]2(C)Oc3cc(-c4cccnc4)oc(=O)c3[C@@H](O)[C@@H]2C1 [PT006, (5aS,6S,8S,9aS,10S)-10-hydroxy-8-isopropyl-5a-methyl-1-oxo-3-(pyridin-3-yl)-1,5a,6,7,8,9,9a,10-octahydropyrano[4,3-b]chromen-6-yl 4-cyanobenzoate], which IC50 is on record?
Its IC50 is less than 0.5 µM.

What about the “degree of inhibitory activity against ACAT2 (in words, compared with pyripyropene A)” value of the same compound?
The value was “substantially equivalent to that of pyripyropene A”.

How did the IC50 turn out when CC(C)[C@@H]1C[C@H](OC(=O)c2ccc(C#N)cc2)[C@@]2(C)Oc3cc(-c4cccnc4)oc(=O)c3[C@H](O)[C@@H]2C1(C)C [PT009, (5aS,6S,8S,9aS,10R)-10-hydroxy-8-isopropyl-5a,9,9-trimethyl-1-oxo-3-(pyridin-3-yl)-1,5a,6,7,8,9,9a,10-octahydropyrano[4,3-b]chromen-6-yl 4-cyanobenzoate] was run?
The IC50 was less than 0.5 µM.

What about the “degree of inhibitory activity against ACAT2 (in words, compared with pyripyropene A)” value of the same compound?
The value was “substantially equivalent to that of pyripyropene A”.

Which IC50 does the source give for CC(C)[C@@H]1C[C@H](OC(=O)c2ccc(C#N)cc2)[C@@]2(C)Oc3cc(-c4ccccc4)oc(=O)c3[C@H](O)[C@@H]2C1 [PT007, (5aS,6S,8S,9aS,10R)-10-hydroxy-8-isopropyl-5a-methyl-1-oxo-3-phenyl-1,5a,6,7,8,9,9a,10-octahydropyrano[4,3-b]chromen-6-yl 4-cyanobenzoate] here?
The IC50 was 0.5 to 10 µM.

For CC(=O)OCC(COC(C)=O)[C@@H]1C[C@H](OC(=O)c2ccc(C#N)cc2)[C@@]2(C)Oc3cc(-c4cccnc4)oc(=O)c3[C@H](O)[C@@H]2C1(C)C [PT022, 2-((5aS,6S,8S,9aS,10R)-6-((4-cyanobenzoyl)oxy)-10-hydroxy-5a,9,9-trimethyl-1-oxo-3-(pyridin-3-yl)-1,5a,6,7,8,9,9a,10-octahydropyrano[4,3-b]chromen-8-yl)propane-1,3-diyl diacetate], which IC50 is on record?
Its IC50 is less than 0.5 µM.
